According to US20230203023A1, “SALT AND CRYSTAL FORMS OF GLP-1R AGONISTS AND USES THEREOF” (QILU REGOR THERAPEUTICS INC., priority 2020, published 2023):
Structures can show the parent of a compound that is named as a salt.

Experiments:
Type in all cases: physicochemical
[1] = Solid stability evaluation (I/II), XRPD and HPLC
Summary of the method: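 Tris salt Form A and amorphous free form of Compound I, and Compound II citrate salt Form A, Tris salt Form B and free form, stored as solids at 60° C. for 1 day and at 25° C./60% RH or 40° C./75% RH for 1 week. Physical form checked by XRPD and chemical stability by HPLC.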

[2] = Solid stability evaluation (II/II), HPLC in triplicate
Description: The chemical stability of 1:1 Compound II Citrate Salt (Form A) and 1:1 Compound II Tris Salt (Form B) was further evaluated at solid state, samples were stored under the ambient condition or 40° C./75% RH for 1 day and 3 days, respectively.

[3] = Solution stability evaluation in SGF (pH 1.8) and pH 8.0 buffer at RT; conditions: for Purity (% area) / pH / Purity vs. Initial (%): 0.01 mg/mL
Description: Weigh 100 mg of sodium chloride and 50 mg of Triton X-100 into a 50-mL volumetric flask. Add appropriate volume of purified water and sonicate until all solids are completely dissolved. Add about 68 μL of 12 M HCl and sufficient purified water closely to the target volume and adjust to pH 1.8. Dilute to volume with purified water, mix well and check the pH with a pH meter.
Add sufficient purified water closely to the target volume and adjust to pH 8.0. Dilute to volume with purified water, mix well and check the pH with a pH meter. […]
Solution stability was evaluated for 1:1 Compound II Citrate Salt (Form A) and 1:1 Compound II Tris Salt (Form B) in SGF (pH 1.8) and pH 8.0 buffer at RT. Clear solutions were prepared at two concentrations (0.01 mg/mL, 0.05 mg/mL) and then placed at RT for 6 hours, 1/5 days or 6 hours, 1/3/7 days. […] The HPLC purity and pH value were tested and the results were summarized from Table 7-3-1 to Table 7-3-4.

[4] = Hygroscopicity, DVS test; conditions: for Hygroscopicity: according to Chinese Pharmacopeia 2015
Description: DVS was measured via a SMS (Surface Measurement Systems) DVS Intrinsic. The relative humidity at 25° C. were calibrated against deliquescence point of LiCl, Mg(NO3)2 and KCl.
To investigate the solid form stability as a function of humidity, DVS isotherm plot of 1:1 Compound I Tris Salt (Form A) was collected between 0% RH and 95% RH at 25° C. […] Considering the 1:1 Compound I Tris Salt (Form A) is a hydrate and may dehydrate under low humidity, DVS was also tested at 20 and 30° C. to further confirm the suitable storage condition and avoid dehydration. […] Combing the VH-XRPD and DVS results: the condition of 20-30° C. and relative humidity ≥40% RH is suitable for the storage of 1:1 Compound I Tris Salt (Form A).
To investigate the solid form stability as a function of humidity, DVS isotherm plots of 1:1 Compound II Citrate Salt (Form A) and 1:1 Compound II Tris Salt (Form B) were collected at 25° C. between 0% RH and 95% RH. […] The water uptake increased by 0.97% from 10% to 80% RH and a platform was observed.

[5] = pH 8.0 (50 mM phosphate), Initial
[6] = pH 8.0 (50 mM phosphate), RT, 6 hours
[7] = pH 8.0 (50 mM phosphate), RT, 1 day
[8] = pH 8.0 (50 mM phosphate), RT, 5 days

## O=C(O)c1ccc2nc(CN3CC=C(c4cccc(OCc5ccc(Cl)cc5F)c4)CC3)n(C[C@@H]3CCO3)c2c1 [Tris salt Form A, (S)-2-((4-(3-((4-chloro-2-fluorobenzyl)-oxy)phenyl)-3,6-dihydropyridin-1(2H)-yl)methyl)-1-(oxetan-2-ylmethyl)-1H-benzo[d]-imidazole-6-carboxylic acid]
[1]; 25° C./60% RH (open), 1 week
  Purity (area %): 94.70 area %
[1]; 40° C./75% RH (open), 1 week
  Form change: No
  Observation: Yellowish
  Purity (area %): 95.40 area %
[1]; 60° C. 1 day, 25° C./60% RH or 40° C./75% RH 1 week
  Chemical stability compared with free form: better chemical stability
[1]; 60° C. (capped), 1 day
  Purity (area %): 93.49 area %
[1]; Initial
  Purity (area %): 95.46 area %
[2]; 40° C./75% RH (open), 1 day
  Ave. Purity (area %): 94.8 area %
[2]; 40° C./75% RH (open), 3 days
  Ave. Purity (area %): 94.7 area %
[2]; Ambient condition (open), 1 day
  Ave. Purity (area %): 94.8 area %
[2]; Ambient condition (open), 3 days
  Ave. Purity (area %): 94.8 area %
[2]; Initial
  Ave. Purity (area %): 94.5 area %
[2]; ambient condition or 40° C./75% RH, 1 day and 3 days
  Chemical stability at solid state, in words: better chemical stability
[3]; pH 1.8 (SGF), Initial
  Purity (% area): 100.00 % area
  pH: 1.8
[3]; pH 1.8 (SGF), RT, 6 hours
  Purity (% area): 100.00 % area
  Purity vs. Initial (%): 100.0%
  pH: 1.8
[3]; pH 1.8 (SGF), RT, 1 day
  Purity (% area): 100.00 % area
  Purity vs. Initial (%): 100.0%
  pH: 1.8
[3]; pH 1.8 (SGF), RT, 5 days
  Purity (% area): 97.40 % area
  Purity vs. Initial (%): 97.4%
  pH: 1.8
[3]; [5]
  Purity (% area): 97.70 % area
  pH: 8.1
[3]; [6]
  Purity (% area): 96.92 % area
  Purity vs. Initial (%): 99.2%
  pH: 8.0
[3]; [7]
  Purity (% area): 96.07 % area
  Purity vs. Initial (%): 98.3%
  pH: 8.0
[3]; [8]
  Purity (% area): 94.34 % area
  Purity vs. Initial (%): 96.6%
  pH: 8.0
[3]; SGF pH 1.8, RT, after 1 day
  Stability of the pH 1.8 solution, in words: No significant degradation
[3]; pH 8.0 buffer, RT
  Stability of the pH 8.0 solution, in words: decreased slightly
[4]; 20° C.
  Form change after DVS test: No
  Water uptake (80% RH): 2.24%
  Hygroscopicity: Hygroscopic
[4]; 25° C.
  Form change after DVS test: No
  Water uptake (80% RH): 2.77%
  Hygroscopicity: Hygroscopic
[4]; 25° C., listed as 1:1 Compound I Tris Salt (Form A)
  Form change after DVS test: No form change
[4]; 30° C.
  Form change after DVS test: No
  Water uptake (80% RH): 2.99%
  Hygroscopicity: Hygroscopic
